From ChEMBL document CHEMBL4840354, “Identification of Diarylurea Inhibitors of the Cardiac-Specific Kinase TNNI3K by Designing Selectivity Against VEGFR2, p38α, and B-Raf” (J Med Chem, 2021)

What was measured:
[1] = molecular target: T1, Serine/threonine-protein kinase TNNI3K (Homo sapiens, UniProt Q59H18); assay: Inhibition of human myc-TNNI3K expressed in HEK-MSR2 cells assessed as reduction in TNNI3K autophosphorylation preincubated for 30 mins followed by pervanadate addition and measured after 20 mins by DELFIA; assay type: cell-based
T1 sequence (Q59H18 whole entry): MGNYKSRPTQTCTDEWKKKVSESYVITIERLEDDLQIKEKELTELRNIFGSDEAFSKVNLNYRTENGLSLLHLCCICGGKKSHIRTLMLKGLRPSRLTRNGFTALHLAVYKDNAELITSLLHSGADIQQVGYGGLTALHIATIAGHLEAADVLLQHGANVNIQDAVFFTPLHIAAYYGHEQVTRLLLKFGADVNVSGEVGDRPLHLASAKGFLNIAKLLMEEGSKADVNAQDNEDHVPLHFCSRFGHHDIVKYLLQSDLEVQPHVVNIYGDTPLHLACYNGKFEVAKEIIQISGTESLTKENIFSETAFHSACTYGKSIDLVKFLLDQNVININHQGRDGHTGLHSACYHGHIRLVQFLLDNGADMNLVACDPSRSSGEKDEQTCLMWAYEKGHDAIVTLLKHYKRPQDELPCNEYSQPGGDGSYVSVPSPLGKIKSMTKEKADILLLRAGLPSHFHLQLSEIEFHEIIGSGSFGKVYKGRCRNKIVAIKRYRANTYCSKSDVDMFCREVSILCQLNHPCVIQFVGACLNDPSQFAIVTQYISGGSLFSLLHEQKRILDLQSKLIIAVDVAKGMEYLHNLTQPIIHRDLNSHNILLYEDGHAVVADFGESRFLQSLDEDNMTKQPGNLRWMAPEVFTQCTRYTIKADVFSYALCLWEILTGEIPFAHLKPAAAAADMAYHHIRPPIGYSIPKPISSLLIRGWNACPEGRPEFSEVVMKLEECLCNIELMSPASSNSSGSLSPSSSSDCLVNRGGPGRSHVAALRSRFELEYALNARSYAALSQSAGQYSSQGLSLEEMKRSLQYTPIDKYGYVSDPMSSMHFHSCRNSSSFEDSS

[2] = molecular target: Vascular endothelial growth factor receptor 2 (Homo sapiens, UniProt P35968); assay: Inhibition of GST-6His tagged VEGFR2 (unknown origin) using biotin-aminohexyl-EEEEYFELVAKKKK-NH2 peptide substrate incubated for 90 mins by HTRF assay
[3] = molecular target: Mitogen-activated protein kinase 14 (Homo sapiens, UniProt Q16539); assay: Inhibition of p38alpha (unknown origin)
[4] = Permeability of compound incubated for 2 hrs by liquid chromatography analysis; assay type: ADME; settings: read-out: permeability
[5] = Dose normalized AUC in po dosed rat administered as cassette dose; assay type: ADME, organism-based; settings: in vivo
[6] = molecular target: Serine/threonine-protein kinase B-raf (Homo sapiens, UniProt P15056); assay: Inhibition of B-Raf (unknown origin)
Homo sapiens [7] = species on record: Homo sapiens; assay: Selectivity index, ratio of IC50 for inhibition of p38alpha (unknown origin) to IC50 for inhibition of TNNI3K (unknown origin)
[8] = Half life in po dosed rat administered as cassette dose; assay type: ADME, organism-based; settings: in vivo
Homo sapiens [9] = species on record: Homo sapiens; assay: Selectivity index, ratio of IC50 for inhibition of VEGFR2 (unknown origin) to IC50 for inhibition of TNNI3K (unknown origin)
[10] = molecular target: T1, Serine/threonine-protein kinase TNNI3K; assay: Inhibition of TNNI3K (unknown origin)
[11] = molecular target: T2, Serine/threonine-protein kinase TNNI3K (Mus musculus, UniProt Q5GIG6); assay: Binding affinity to full length mouse His-MBP-TNNI3K assessed as off-rate constant in presence of rhodamine green labeled GW805818X by fluorescence competitive binding assay
T2 sequence (Q5GIG6 whole entry): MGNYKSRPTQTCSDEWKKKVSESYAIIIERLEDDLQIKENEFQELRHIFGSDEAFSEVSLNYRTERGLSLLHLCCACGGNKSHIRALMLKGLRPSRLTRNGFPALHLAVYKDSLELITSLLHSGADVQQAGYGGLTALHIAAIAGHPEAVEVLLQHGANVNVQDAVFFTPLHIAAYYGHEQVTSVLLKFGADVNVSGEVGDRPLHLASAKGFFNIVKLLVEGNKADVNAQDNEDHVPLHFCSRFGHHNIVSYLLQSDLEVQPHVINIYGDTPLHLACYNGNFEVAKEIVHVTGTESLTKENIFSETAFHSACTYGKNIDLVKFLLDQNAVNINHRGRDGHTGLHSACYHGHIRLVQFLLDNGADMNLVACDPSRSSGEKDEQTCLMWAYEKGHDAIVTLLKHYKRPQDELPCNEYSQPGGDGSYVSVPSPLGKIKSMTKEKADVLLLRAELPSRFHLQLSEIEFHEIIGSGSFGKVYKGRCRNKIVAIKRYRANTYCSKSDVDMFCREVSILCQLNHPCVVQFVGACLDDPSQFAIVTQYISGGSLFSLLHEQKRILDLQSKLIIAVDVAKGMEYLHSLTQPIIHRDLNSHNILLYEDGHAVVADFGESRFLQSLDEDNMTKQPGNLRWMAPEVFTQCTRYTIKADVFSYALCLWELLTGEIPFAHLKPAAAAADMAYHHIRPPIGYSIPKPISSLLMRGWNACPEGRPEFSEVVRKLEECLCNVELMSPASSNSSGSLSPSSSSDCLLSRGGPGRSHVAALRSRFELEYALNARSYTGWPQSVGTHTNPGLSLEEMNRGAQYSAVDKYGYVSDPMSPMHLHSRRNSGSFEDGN

[12] = molecular target: T1, Serine/threonine-protein kinase TNNI3K; assay: Binding affinity to full length human His-MBP-TNNI3K assessed as off-rate constant in presence of rhodamine green labeled GW805818X by fluorescence competitive binding assay
[13] = molecular target: T3, Serine/threonine-protein kinase TNNI3K (Mus musculus) (UniProt Q5GIG6)
T3 sequence (whole entry): T2 sequence (Q5GIG6 whole entry)
Description: Binding affinity to full length mouse His-MBP-TNNI3K assessed as half life in presence of rhodamine green labeled GW805818X by fluorescence competitive binding assay

[14] = molecular target: T4, Serine/threonine-protein kinase TNNI3K (Homo sapiens) (UniProt Q59H18)
T4 sequence (whole entry): T1 sequence (Q59H18 whole entry)
Description: Binding affinity to full length human His-MBP-TNNI3K assessed as half life in presence of rhodamine green labeled GW805818X by fluorescence competitive binding assay

[15] = molecular target: Voltage-gated inwardly rectifying potassium channel KCNH2 (Homo sapiens, UniProt Q12809); assay: Inhibition of human ERG expressed in HEK293 cells; assay type: cell-based
Chain of Voltage-gated inwardly rectifying potassium channel KCNH2 (Q12809 whole entry): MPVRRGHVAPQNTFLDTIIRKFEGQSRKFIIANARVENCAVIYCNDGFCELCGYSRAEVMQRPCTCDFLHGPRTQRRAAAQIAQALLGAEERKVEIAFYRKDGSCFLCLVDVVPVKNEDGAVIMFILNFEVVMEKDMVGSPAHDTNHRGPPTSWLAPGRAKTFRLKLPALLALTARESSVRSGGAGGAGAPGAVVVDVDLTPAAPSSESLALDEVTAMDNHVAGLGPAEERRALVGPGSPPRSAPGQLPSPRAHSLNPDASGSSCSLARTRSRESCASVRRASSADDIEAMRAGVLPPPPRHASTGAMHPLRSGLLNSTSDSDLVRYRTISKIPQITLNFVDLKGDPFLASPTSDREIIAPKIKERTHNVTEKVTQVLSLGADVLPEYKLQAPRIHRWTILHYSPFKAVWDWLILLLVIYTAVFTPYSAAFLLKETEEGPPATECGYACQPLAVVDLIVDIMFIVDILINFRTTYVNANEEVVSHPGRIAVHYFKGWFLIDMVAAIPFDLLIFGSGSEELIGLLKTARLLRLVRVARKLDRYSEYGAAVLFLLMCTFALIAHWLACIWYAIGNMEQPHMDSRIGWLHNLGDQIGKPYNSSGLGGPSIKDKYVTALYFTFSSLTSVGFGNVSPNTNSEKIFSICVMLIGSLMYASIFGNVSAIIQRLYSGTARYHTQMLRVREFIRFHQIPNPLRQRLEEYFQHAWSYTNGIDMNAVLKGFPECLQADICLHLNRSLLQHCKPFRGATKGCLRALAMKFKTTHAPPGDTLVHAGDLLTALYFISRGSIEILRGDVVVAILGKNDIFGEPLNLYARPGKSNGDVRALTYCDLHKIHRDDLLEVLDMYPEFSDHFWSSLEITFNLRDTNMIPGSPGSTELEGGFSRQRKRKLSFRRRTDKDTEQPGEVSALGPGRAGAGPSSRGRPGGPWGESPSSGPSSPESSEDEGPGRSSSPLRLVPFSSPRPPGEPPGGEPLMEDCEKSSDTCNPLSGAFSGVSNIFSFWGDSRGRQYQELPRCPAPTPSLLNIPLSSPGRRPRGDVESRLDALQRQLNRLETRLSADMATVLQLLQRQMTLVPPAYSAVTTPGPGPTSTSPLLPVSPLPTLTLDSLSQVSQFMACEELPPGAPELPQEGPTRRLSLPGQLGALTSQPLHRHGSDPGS

Chain of Mitogen-activated protein kinase 14 (Q16539 whole entry): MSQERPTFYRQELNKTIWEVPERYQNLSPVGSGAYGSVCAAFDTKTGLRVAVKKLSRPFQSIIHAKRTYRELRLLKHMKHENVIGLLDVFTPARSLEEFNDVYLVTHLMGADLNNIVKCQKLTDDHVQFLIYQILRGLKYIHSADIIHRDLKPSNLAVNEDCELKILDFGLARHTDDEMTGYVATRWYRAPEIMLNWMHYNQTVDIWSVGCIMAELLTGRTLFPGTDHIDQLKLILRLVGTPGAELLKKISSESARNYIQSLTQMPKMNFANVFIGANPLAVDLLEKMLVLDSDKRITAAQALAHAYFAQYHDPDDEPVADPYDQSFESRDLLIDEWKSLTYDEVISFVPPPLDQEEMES
Chain of Serine/threonine-protein kinase B-raf (P15056 whole entry): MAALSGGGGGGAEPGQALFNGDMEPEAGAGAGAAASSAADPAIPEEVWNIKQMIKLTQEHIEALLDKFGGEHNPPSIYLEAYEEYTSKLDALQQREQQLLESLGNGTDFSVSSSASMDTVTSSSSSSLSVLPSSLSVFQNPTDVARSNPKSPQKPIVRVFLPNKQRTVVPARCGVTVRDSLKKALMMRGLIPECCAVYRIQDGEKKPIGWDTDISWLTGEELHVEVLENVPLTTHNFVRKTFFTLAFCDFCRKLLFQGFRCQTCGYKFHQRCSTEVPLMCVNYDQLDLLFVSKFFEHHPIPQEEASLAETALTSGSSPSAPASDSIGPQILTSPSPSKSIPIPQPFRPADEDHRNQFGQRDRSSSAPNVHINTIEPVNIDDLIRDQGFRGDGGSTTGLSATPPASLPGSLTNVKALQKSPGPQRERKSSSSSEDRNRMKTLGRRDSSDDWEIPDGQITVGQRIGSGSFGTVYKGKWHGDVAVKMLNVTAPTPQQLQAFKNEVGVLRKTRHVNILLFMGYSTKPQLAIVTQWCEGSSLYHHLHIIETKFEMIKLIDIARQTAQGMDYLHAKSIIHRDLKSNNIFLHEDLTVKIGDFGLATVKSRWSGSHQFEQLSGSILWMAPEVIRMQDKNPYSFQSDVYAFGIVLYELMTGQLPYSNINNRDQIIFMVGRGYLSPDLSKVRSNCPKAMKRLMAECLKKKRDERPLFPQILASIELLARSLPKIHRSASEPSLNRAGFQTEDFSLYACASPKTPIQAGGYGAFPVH
Chain of Vascular endothelial growth factor receptor 2 (P35968 whole entry): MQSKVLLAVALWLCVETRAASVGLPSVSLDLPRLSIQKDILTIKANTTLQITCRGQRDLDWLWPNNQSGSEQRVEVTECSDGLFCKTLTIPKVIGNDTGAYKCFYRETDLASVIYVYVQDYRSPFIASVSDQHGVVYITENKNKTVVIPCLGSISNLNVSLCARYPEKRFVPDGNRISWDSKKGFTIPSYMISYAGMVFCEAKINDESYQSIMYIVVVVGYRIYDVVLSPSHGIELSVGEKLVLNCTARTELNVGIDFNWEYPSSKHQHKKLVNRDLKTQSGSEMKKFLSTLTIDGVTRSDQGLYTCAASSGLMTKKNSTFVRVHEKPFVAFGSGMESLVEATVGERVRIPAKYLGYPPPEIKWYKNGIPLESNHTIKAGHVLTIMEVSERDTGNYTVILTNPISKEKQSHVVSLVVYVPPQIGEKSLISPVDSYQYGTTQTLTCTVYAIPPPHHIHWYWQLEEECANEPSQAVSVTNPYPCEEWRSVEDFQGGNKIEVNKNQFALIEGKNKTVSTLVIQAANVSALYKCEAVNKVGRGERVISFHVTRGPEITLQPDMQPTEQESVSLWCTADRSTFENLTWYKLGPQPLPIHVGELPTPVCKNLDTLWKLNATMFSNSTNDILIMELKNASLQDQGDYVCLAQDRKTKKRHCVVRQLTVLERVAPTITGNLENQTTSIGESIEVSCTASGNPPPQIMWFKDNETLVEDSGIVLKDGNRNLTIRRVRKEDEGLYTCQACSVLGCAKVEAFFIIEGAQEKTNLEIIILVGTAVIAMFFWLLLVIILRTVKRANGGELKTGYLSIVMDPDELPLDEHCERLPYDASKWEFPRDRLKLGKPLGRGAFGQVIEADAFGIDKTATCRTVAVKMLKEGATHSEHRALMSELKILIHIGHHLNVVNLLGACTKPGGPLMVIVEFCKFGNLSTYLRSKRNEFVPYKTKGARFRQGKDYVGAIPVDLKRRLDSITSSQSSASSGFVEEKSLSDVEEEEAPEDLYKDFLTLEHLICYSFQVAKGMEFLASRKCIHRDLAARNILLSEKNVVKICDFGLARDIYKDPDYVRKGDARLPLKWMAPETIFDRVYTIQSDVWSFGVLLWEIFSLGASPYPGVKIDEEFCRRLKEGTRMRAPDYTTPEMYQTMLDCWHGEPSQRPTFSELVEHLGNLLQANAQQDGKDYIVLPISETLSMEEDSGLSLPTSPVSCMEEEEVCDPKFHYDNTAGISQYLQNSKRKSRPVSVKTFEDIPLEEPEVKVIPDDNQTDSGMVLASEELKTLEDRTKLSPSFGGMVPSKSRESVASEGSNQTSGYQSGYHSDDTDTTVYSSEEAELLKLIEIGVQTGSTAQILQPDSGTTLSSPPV

Row | SMILES | IC50 [1] [nM] | IC50 [2] [nM] | IC50 [3] [nM] | Papp at 2 h [4] [×10⁻⁶ cm/s] | AUC/dose [5] [kg·h/L] | IC50 [6] [nM] | Ratio IC50 (Homo sapiens [7]) | half-life [8] [h] | Ratio IC50 (Homo sapiens [9]) | IC50 [10] [nM] | Ki [11] [nM] | Ki [12] [nM] | T1/2 [13] [h] | T1/2 [14] [h] | IC50 [15] [nM]
1 | CC(C)(O)CNc1cc(Oc2ccc(NC(=O)Nc3cccc(C(F)(F)F)c3)cc2)ncn1 | 50 | 320 | 630 | 21 | 2 | 1600 | 16 | 3.7 | 8 | 40 | – | – | – | – | –
2 | CNS(=O)(=O)c1ccc(N(C)C)c(Nc2ncnc3[nH]ccc23)c1 | – | – | – | – | 0.59 | 6 | – | – | – | – | – | – | – | – | –
3 | CNc1cc(Oc2c(C)cc(NC(=O)Nc3cccc(C(F)(F)F)c3)cc2C)ncn1 | 7.9 | 1000 | 6300 | 29.5 | 1.5 | 2000 | 250 | 2.4 | 40 | – | – | – | – | – | –
4 | CNc1cc(Oc2c(Cl)cc(NC(=O)Nc3cccc(C(F)(F)F)c3)cc2Cl)ncn1 | 100 | 400 | 800 | 7.4 | 3.8 | > 2000 | 80 | 5.4 | 40 | 10 | 13 | 0.54 | 0.417 | 1.3 | > 31600
5 | CCS(=O)(=O)c1ccc(S(=O)(=O)NC)cc1Nc1cc(Nc2ccc(Cl)cn2)ncn1 | – | – | – | – | 0.56 | – | – | – | – | ≤ 10 | – | – | – | – | –
6 | Nc1cc(Oc2ccc(NC(=O)Nc3cccc(C(F)(F)F)c3)cc2)ncn1 | 16 | 7.9 | 1000 | 24.5 | 0.4 | 1600 | 40 | 3.2 | 0.32 | 25 | – | – | – | – | –
7 | CCc1cc(NC(=O)Nc2cccc(C(F)(F)F)c2)cc(Cl)c1Oc1cc(NC)ncn1 | 100 | 2500 | 1600 | 5.9 | 1.2 | > 2000 | > 160 | 3.7 | > 250 | ≤ 10 | – | – | – | – | –
8 | CNc1cc(Oc2ccc(NC(=O)Nc3cccc(C(F)(F)F)c3)cc2)ncn1 | 20 | 25 | 1000 | 23 | 3.8 | 500 | 25 | 3.2 | 0.63 | 40 | – | – | – | – | –
9 | O=C(Nc1ccc(Oc2cc(NCCO)ncn2)cc1)Nc1cccc(C(F)(F)F)c1 | 40 | 79 | 1000 | 8.2 | 0.3 | 1000 | 31 | 4.5 | 2.5 | 32 | – | – | – | – | –
10 | CNS(=O)(=O)c1ccc(N(C)C)c(Nc2ncnc3cc(OC)c(OC)cc23)c1 | – | – | – | – | 0.18 | 1000 | – | – | – | – | – | – | – | – | –
11 | O=C(Nc1ccc(Oc2ccncn2)cc1)Nc1cccc(C(F)(F)F)c1 | – | 50 | 630 | – | – | 1000 | 3.9 | – | 0.3 | 160 | – | – | – | – | –
12 | CNc1cc(Oc2ccc(NC(=O)Nc3cccc(C(C)(F)F)c3)cc2)ncn1 | – | 40 | 1000 | – | – | 500 | 25 | – | 1 | 40 | – | – | – | – | –
13 | CNc1cc(Oc2ccc(NC(=O)Nc3cccc(C(C)(C)C)c3)cc2)ncn1 | – | 25 | 1000 | – | – | 400 | 25 | – | 0.63 | 40 | – | – | – | – | –
14 | CNc1cc(Oc2ccc(NC(=O)Nc3ccccc3)cc2)ncn1 | – | 6300 | > 25000 | – | – | > 2000 | > 4 | – | 1 | 6300 | – | – | – | – | –
15 | C[C@H](O)CNc1cc(Oc2ccc(NC(=O)Nc3cccc(C(F)(F)F)c3)cc2)ncn1 | – | 320 | 320 | – | – | 800 | 10 | – | 10 | 32 | – | – | – | – | –
16 | CNC(=O)c1cc(Oc2ccc(NC(=O)Nc3ccc(Cl)c(C(F)(F)F)c3)cc2)ccn1 [SORAFENIB] | – | – | – | 11 | 5.8 | – | – | 6.8 | – | – | – | – | – | – | –
